Assay in all cases: relative viability (nuclei count vs DMSO), 5 days (fraction); higher = more cells survive
Compound in the assay “EHT 1864 + Linsitinib”: C1COCCN1CC2=CC(=O)C(=CO2)OCCCCCSC3=C4C=CC(=CC4=NC=C3)C(F)(F)F [EHT 1864] + C[C@]1(O)C[C@@H](c2nc(-c3ccc4ccc(-c5ccccc5)nc4c3)c3c(N)nccn32)C1 [Linsitinib] (partner 1 µM)
The gist of the method: (§1)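 For relative viability, nuclei counts in treated wells were divided by those in vehicle wells. Lung cancer cell lines had been pin-tool dosed in 1536-well plates the day after seeding and cultured for 5 days, then fixed and stained in one step (final 0.05% Triton X-100, 1% formaldehyde, 1 ug/ml Hoechst) and imaged at 4×. Doses were one drug alone or a fixed anchor-drug dose plus five library-drug doses (not always all listed) in √10 steps, and values are duplicate-plate medians.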

Compound in the assay “EHT 1864 + Lapatinib”: C1COCCN1CC2=CC(=O)C(=CO2)OCCCCCSC3=C4C=CC(=CC4=NC=C3)C(F)(F)F [EHT 1864] + CS(=O)(=O)CCNCc1ccc(-c2ccc3ncnc(Nc4ccc(OCc5cccc(F)c5)c(Cl)c4)c3c2)o1 [Lapatinib] (partner 2 µM)
The gist of the method: as §1

Compound in the assay “EHT 1864 + OSI-027”: C1COCCN1CC2=CC(=O)C(=CO2)OCCCCCSC3=C4C=CC(=CC4=NC=C3)C(F)(F)F [EHT 1864] + COc1cccc2cc(-c3nc([C@H]4CC[C@H](C(=O)O)CC4)n4ncnc(N)c34)[nH]c12 [OSI-027] (partner 0.5 µM)
In a few lines: as §1

Compound in the assay “EHT 1864 + Trametinib”: C1COCCN1CC2=CC(=O)C(=CO2)OCCCCCSC3=C4C=CC(=CC4=NC=C3)C(F)(F)F [EHT 1864] + CC(=O)Nc1cccc(-n2c(=O)n(C3CC3)c(=O)c3c(Nc4ccc(I)cc4F)n(C)c(=O)c(C)c32)c1 [Trametinib] (partner 0.02 µM)
The gist of the method:
as §1

Take PC-3 [JPC-3]: the relative viability came to 0.982 with EHT 1864 + Linsitinib (first compound 0.04 µM); 0.938 with EHT 1864 + Linsitinib (first compound 0.1265 µM); 0.942 with EHT 1864 + Linsitinib (first compound 0.4 µM); 0.949 in the assay with EHT 1864 + Linsitinib (first compound 1.265 µM); 0.952 with EHT 1864 + Linsitinib (first compound 4 µM); 0.508 with EHT 1864 + Lapatinib (first compound 0.04 µM). Moreover, the relative viability with EHT 1864 + Lapatinib (first compound 0.1265 µM) was 0.405; in the assay with EHT 1864 + Lapatinib (first compound 0.4 µM), 0.452; with EHT 1864 + Lapatinib (first compound 1.265 µM) it was 0.474; with EHT 1864 + Lapatinib (first compound 4 µM), 0.438; in the assay with EHT 1864 + OSI-027 (first compound 0.04 µM), 0.743; with EHT 1864 + OSI-027 (first compound 0.1265 µM) it was 0.575. Also, the relative viability with EHT 1864 + OSI-027 (first compound 0.4 µM) is 0.742; with EHT 1864 + OSI-027 (first compound 1.265 µM), 0.732; with EHT 1864 + OSI-027 (first compound 4 µM) it was 0.646; in the assay with EHT 1864 + Trametinib (first compound 0.04 µM), 0.641; with EHT 1864 + Trametinib (first compound 0.1265 µM), 0.649; with EHT 1864 + Trametinib (first compound 0.4 µM), 0.763. For the same cell line, the relative viability with EHT 1864 + Trametinib (first compound 1.265 µM) was 0.727; with EHT 1864 + Trametinib (first compound 4 µM) it was 0.695.

On to PC-14, for which the relative viability was 0.955 in the assay with EHT 1864 + Linsitinib (first compound 0.04 µM); 0.973 with EHT 1864 + Linsitinib (first compound 0.1265 µM); 0.954 in the assay with EHT 1864 + Linsitinib (first compound 0.4 µM); 0.985 with EHT 1864 + Linsitinib (first compound 1.265 µM); 0.99 with EHT 1864 + Linsitinib (first compound 4 µM); 0.316 in the assay with EHT 1864 + Lapatinib (first compound 0.04 µM). Moreover, the relative viability worked out at 0.28 with EHT 1864 + Lapatinib (first compound 0.1265 µM); 0.325 with EHT 1864 + Lapatinib (first compound 0.4 µM); 0.294 with EHT 1864 + Lapatinib (first compound 1.265 µM); 0.272 with EHT 1864 + Lapatinib (first compound 4 µM); 0.813 with EHT 1864 + OSI-027 (first compound 0.04 µM); 0.75 with EHT 1864 + OSI-027 (first compound 0.1265 µM). The relative viability was 0.814 with EHT 1864 + OSI-027 (first compound 0.4 µM); 1.05 with EHT 1864 + OSI-027 (first compound 1.265 µM); 0.88 with EHT 1864 + OSI-027 (first compound 4 µM); 0.741 with EHT 1864 + Trametinib (first compound 0.04 µM); 0.672 with EHT 1864 + Trametinib (first compound 0.1265 µM); 0.796 in the assay with EHT 1864 + Trametinib (first compound 0.4 µM). Besides, the values for the relative viability in the assay with EHT 1864 + Trametinib (first compound 1.265 µM) and with EHT 1864 + Trametinib (first compound 4 µM) were 0.68 and 0.88, respectively.

As for RERF-LC-KJ, the relative viability with EHT 1864 + Linsitinib (first compound 0.04 µM) worked out at 0.874; with EHT 1864 + Linsitinib (first compound 0.1265 µM) it was 0.884; with EHT 1864 + Linsitinib (first compound 0.4 µM), 0.861; with EHT 1864 + Linsitinib (first compound 1.265 µM), 0.861; in the assay with EHT 1864 + Linsitinib (first compound 4 µM), 0.847; in the assay with EHT 1864 + Lapatinib (first compound 0.04 µM), 0.916. In addition, the relative viability with EHT 1864 + Lapatinib (first compound 0.1265 µM) worked out at 0.913; with EHT 1864 + Lapatinib (first compound 0.4 µM), 0.925; in the assay with EHT 1864 + Lapatinib (first compound 1.265 µM), 0.798; with EHT 1864 + Lapatinib (first compound 4 µM) it was 0.854; with EHT 1864 + OSI-027 (first compound 0.04 µM), 0.621; in the assay with EHT 1864 + OSI-027 (first compound 0.1265 µM), 0.539. In addition, the relative viability is 0.52 with EHT 1864 + OSI-027 (first compound 0.4 µM); 0.575 with EHT 1864 + OSI-027 (first compound 1.265 µM); 0.541 with EHT 1864 + OSI-027 (first compound 4 µM); 0.896 in the assay with EHT 1864 + Trametinib (first compound 0.04 µM); 0.868 with EHT 1864 + Trametinib (first compound 0.1265 µM); 0.866 with EHT 1864 + Trametinib (first compound 0.4 µM). The figures for the relative viability with EHT 1864 + Trametinib (first compound 1.265 µM) and with EHT 1864 + Trametinib (first compound 4 µM) were 0.826 and 0.832, respectively.

Turning to SK-LU-1, the relative viability is 1.09 in the assay with EHT 1864 + Linsitinib (first compound 0.04 µM); 1 in the assay with EHT 1864 + Linsitinib (first compound 0.1265 µM); 0.95 in the assay with EHT 1864 + Linsitinib (first compound 0.4 µM); 1.11 with EHT 1864 + Linsitinib (first compound 1.265 µM); 1.12 in the assay with EHT 1864 + Linsitinib (first compound 4 µM); 0.91 with EHT 1864 + Lapatinib (first compound 0.04 µM). Besides, the relative viability came to 0.65 with EHT 1864 + Lapatinib (first compound 0.1265 µM); 0.795 in the assay with EHT 1864 + Lapatinib (first compound 0.4 µM); 0.878 with EHT 1864 + Lapatinib (first compound 1.265 µM); 0.781 with EHT 1864 + Lapatinib (first compound 4 µM); 0.357 with EHT 1864 + OSI-027 (first compound 0.04 µM); 0.262 with EHT 1864 + OSI-027 (first compound 0.1265 µM). The relative viability with EHT 1864 + OSI-027 (first compound 0.4 µM) is 0.32; with EHT 1864 + OSI-027 (first compound 1.265 µM), 0.33; with EHT 1864 + OSI-027 (first compound 4 µM) it was 0.312; with EHT 1864 + Trametinib (first compound 0.04 µM), 0.594; in the assay with EHT 1864 + Trametinib (first compound 0.1265 µM), 0.516; with EHT 1864 + Trametinib (first compound 0.4 µM) it was 0.477. The relative viability is 0.378 in the assay with EHT 1864 + Trametinib (first compound 1.265 µM) and 0.464 with EHT 1864 + Trametinib (first compound 4 µM).

As for SK-MES-1, the relative viability with EHT 1864 + Linsitinib (first compound 0.04 µM) is 1.06; with EHT 1864 + Linsitinib (first compound 0.1265 µM) it was 1.06; in the assay with EHT 1864 + Linsitinib (first compound 0.4 µM), 1.17; in the assay with EHT 1864 + Linsitinib (first compound 1.265 µM), 1.16; with EHT 1864 + Linsitinib (first compound 4 µM) it was 1.09; in the assay with EHT 1864 + Lapatinib (first compound 0.04 µM), 0.469. Besides, the relative viability with EHT 1864 + Lapatinib (first compound 0.1265 µM) came to 0.48; in the assay with EHT 1864 + Lapatinib (first compound 0.4 µM), 0.517; with EHT 1864 + Lapatinib (first compound 1.265 µM) it was 0.439; with EHT 1864 + Lapatinib (first compound 4 µM), 0.443; in the assay with EHT 1864 + OSI-027 (first compound 0.04 µM), 0.628; with EHT 1864 + OSI-027 (first compound 0.1265 µM), 0.542. In addition, the relative viability with EHT 1864 + OSI-027 (first compound 0.4 µM) was 0.572; with EHT 1864 + OSI-027 (first compound 1.265 µM), 0.592; with EHT 1864 + OSI-027 (first compound 4 µM), 0.562; with EHT 1864 + Trametinib (first compound 0.04 µM), 0.539; with EHT 1864 + Trametinib (first compound 0.1265 µM), 0.498; with EHT 1864 + Trametinib (first compound 0.4 µM) it was 0.518. In addition, the relative viability stood at 0.537 with EHT 1864 + Trametinib (first compound 1.265 µM) and 0.518 with EHT 1864 + Trametinib (first compound 4 µM).

For the cell line SW 1573, the relative viability turned out to be 0.923 with EHT 1864 + Linsitinib (first compound 0.04 µM); 0.943 with EHT 1864 + Linsitinib (first compound 0.1265 µM); 0.812 with EHT 1864 + Linsitinib (first compound 0.4 µM); 0.814 with EHT 1864 + Linsitinib (first compound 1.265 µM); 0.709 with EHT 1864 + Linsitinib (first compound 4 µM); 1.22 in the assay with EHT 1864 + Lapatinib (first compound 0.04 µM). Further, the relative viability is 0.912 with EHT 1864 + Lapatinib (first compound 0.1265 µM); 1.12 in the assay with EHT 1864 + Lapatinib (first compound 0.4 µM); 1.03 with EHT 1864 + Lapatinib (first compound 1.265 µM); 1.06 with EHT 1864 + Lapatinib (first compound 4 µM); 0.592 with EHT 1864 + OSI-027 (first compound 0.04 µM); 0.54 in the assay with EHT 1864 + OSI-027 (first compound 0.1265 µM). Besides, the relative viability with EHT 1864 + OSI-027 (first compound 0.4 µM) was 0.605; with EHT 1864 + OSI-027 (first compound 1.265 µM), 0.482; with EHT 1864 + OSI-027 (first compound 4 µM), 0.55; with EHT 1864 + Trametinib (first compound 0.04 µM), 0.622; in the assay with EHT 1864 + Trametinib (first compound 0.4 µM), 0.437; in the assay with EHT 1864 + Trametinib (first compound 1.265 µM), 0.398. Also, the relative viability in the assay with EHT 1864 + Trametinib (first compound 4 µM) is 0.444.

On to UMC-11, for which the relative viability in the assay with EHT 1864 + Linsitinib (first compound 0.04 µM) worked out at 1.02; with EHT 1864 + Linsitinib (first compound 0.1265 µM), 0.978; with EHT 1864 + Linsitinib (first compound 0.4 µM), 0.986; with EHT 1864 + Linsitinib (first compound 1.265 µM), 0.962; in the assay with EHT 1864 + Linsitinib (first compound 4 µM), 0.963; with EHT 1864 + Lapatinib (first compound 0.04 µM), 0.724. Besides, the relative viability in the assay with EHT 1864 + Lapatinib (first compound 0.4 µM) is 1.05; with EHT 1864 + Lapatinib (first compound 1.265 µM), 0.938; in the assay with EHT 1864 + Lapatinib (first compound 4 µM) it was 0.987; with EHT 1864 + OSI-027 (first compound 0.04 µM) it was 0.463; in the assay with EHT 1864 + OSI-027 (first compound 0.1265 µM) it was 0.366; with EHT 1864 + OSI-027 (first compound 1.265 µM), 0.483. The relative viability in the assay with EHT 1864 + OSI-027 (first compound 4 µM) was found to be 0.47; with EHT 1864 + Trametinib (first compound 0.04 µM) it was 0.727; with EHT 1864 + Trametinib (first compound 0.1265 µM), 0.496; with EHT 1864 + Trametinib (first compound 0.4 µM), 0.692; with EHT 1864 + Trametinib (first compound 1.265 µM), 0.74; with EHT 1864 + Trametinib (first compound 4 µM), 0.967.

The values above are taken from the supplement of paper PMC10307832.
